Test results as given in article PMC8429728, “TNK1 is a ubiquitin-binding and 14-3-3-regulated kinase that can be targeted to block tumor growth” (Nature Communications, 2021).
Like-named read-outs stand apart in the source and are kept apart here.

Legend:
Assay in all cases: biochemical
Design in all cases: Reaction Biology 371-kinase panel at Km ATP, per cent enzyme activity relative to DMSO, single dose in duplicate
GRK1 = GRK1 (Homo sapiens, UniProt Q15835); settings: duplicate measurements, Km ATP
Description: (§1) To assess kinase selectivity, we screened TP-5801 (300 nM) against a panel of 371 kinases in vitro. […] In addition to TNK1, only 7 other kinases were inhibited by more than 90% (Supplementary Fig. 8 and Supplementary Data 2). […] The resulting % Enzyme activity (relative to DMSO controls) were plotted in GraphPad and IC50 values were determined by sigmoidal dose-response (variable slope) curve fits, with a bottom constraint of 0.

FYN = FYN (Homo sapiens, UniProt P06241); settings: duplicate measurements, Km ATP
Description: as §1

PKA = biological target: T1, PKA (Homo sapiens, UniProt P17612); settings: duplicate measurements, Km ATP
T1 construct: gene PRKACA
Description: as §1

ABL2/ARG = ABL2/ARG (Homo sapiens, UniProt P42684); settings: duplicate measurements, Km ATP
Description: as §1

CDK16/cyclin Y (PCTAIRE) = CDK16/cyclin Y (PCTAIRE) (Homo sapiens, UniProt Q00536); settings: duplicate measurements, Km ATP
Description: as §1

RSK2 = biological target: T2, RSK2 (Homo sapiens, UniProt P51812); settings: duplicate measurements, Km ATP
T2 construct: gene RPS6KA3
Description: as §1

GSK3a = GSK3a (Homo sapiens, UniProt P49840); settings: duplicate measurements, Km ATP
Description: as §1

KSR1 = KSR1 (Homo sapiens, UniProt Q8IVT5); settings: duplicate measurements, Km ATP
Description: as §1

IRAK1 = IRAK1 (Homo sapiens, UniProt P51617); settings: duplicate measurements, Km ATP
Description: as §1

SIK2 = SIK2 (Homo sapiens, UniProt Q9H0K1); settings: duplicate measurements, Km ATP
Description: as §1

CDK19/cyclin C = CDK19/cyclin C (Homo sapiens, UniProt Q9BWU1); settings: duplicate measurements, Km ATP
Description: as §1

PLK2 = PLK2 (Homo sapiens, UniProt Q9NYY3); settings: duplicate measurements, Km ATP
Description: as §1

CAMKK2 = CAMKK2 (Homo sapiens, UniProt Q96RR4); settings: duplicate measurements, Km ATP
Description: as §1

VRK2 = VRK2 (Homo sapiens, UniProt Q86Y07); settings: duplicate measurements, Km ATP
Description: as §1

DYRK1/DYRK1A = DYRK1/DYRK1A (Homo sapiens, UniProt Q13627); settings: duplicate measurements, Km ATP
Description: as §1

ROCK1 = ROCK1 (Homo sapiens, UniProt Q13464); settings: duplicate measurements, Km ATP
Description: as §1

RSK1 = biological target: T3, RSK1 (Homo sapiens, UniProt Q15418); settings: duplicate measurements, Km ATP
T3 construct: gene RPS6KA1
Description: as §1

PLK1 = PLK1 (Homo sapiens, UniProt P53350); settings: duplicate measurements, Km ATP
Description: as §1

CDC7/DBF4 = CDC7/DBF4 (Homo sapiens, UniProt O00311); settings: duplicate measurements, Km ATP
Description: as §1

ROCK2 = ROCK2 (Homo sapiens, UniProt O75116); settings: duplicate measurements, Km ATP; read-out: % Enzyme Activity (relative to DMSO controls) / TP-0005801 (0.3µM) / Data 1
Description: as §1

[1] = read-out: % Enzyme Activity (relative to DMSO controls) / TP-0005801 (0.3µM) / Data 1
[2] = read-out: % Enzyme Activity (relative to DMSO controls) / TP-0005801 (0.3µM) / Data 2

Sequence of FYN (P06241 whole entry): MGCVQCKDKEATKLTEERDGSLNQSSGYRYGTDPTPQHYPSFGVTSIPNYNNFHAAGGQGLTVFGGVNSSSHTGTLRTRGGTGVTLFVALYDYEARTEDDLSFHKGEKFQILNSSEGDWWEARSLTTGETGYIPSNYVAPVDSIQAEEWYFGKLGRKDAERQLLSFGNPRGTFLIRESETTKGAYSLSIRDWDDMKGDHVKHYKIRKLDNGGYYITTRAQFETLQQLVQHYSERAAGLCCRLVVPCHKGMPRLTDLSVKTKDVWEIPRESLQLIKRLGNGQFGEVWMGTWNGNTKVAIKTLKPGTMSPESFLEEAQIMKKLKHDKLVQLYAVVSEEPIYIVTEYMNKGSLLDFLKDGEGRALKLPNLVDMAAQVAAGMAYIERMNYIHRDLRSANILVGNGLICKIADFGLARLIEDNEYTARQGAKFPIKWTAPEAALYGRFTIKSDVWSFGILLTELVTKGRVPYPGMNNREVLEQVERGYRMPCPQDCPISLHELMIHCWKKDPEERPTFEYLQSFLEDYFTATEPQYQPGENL
Sequence of SIK2 (Q9H0K1 whole entry): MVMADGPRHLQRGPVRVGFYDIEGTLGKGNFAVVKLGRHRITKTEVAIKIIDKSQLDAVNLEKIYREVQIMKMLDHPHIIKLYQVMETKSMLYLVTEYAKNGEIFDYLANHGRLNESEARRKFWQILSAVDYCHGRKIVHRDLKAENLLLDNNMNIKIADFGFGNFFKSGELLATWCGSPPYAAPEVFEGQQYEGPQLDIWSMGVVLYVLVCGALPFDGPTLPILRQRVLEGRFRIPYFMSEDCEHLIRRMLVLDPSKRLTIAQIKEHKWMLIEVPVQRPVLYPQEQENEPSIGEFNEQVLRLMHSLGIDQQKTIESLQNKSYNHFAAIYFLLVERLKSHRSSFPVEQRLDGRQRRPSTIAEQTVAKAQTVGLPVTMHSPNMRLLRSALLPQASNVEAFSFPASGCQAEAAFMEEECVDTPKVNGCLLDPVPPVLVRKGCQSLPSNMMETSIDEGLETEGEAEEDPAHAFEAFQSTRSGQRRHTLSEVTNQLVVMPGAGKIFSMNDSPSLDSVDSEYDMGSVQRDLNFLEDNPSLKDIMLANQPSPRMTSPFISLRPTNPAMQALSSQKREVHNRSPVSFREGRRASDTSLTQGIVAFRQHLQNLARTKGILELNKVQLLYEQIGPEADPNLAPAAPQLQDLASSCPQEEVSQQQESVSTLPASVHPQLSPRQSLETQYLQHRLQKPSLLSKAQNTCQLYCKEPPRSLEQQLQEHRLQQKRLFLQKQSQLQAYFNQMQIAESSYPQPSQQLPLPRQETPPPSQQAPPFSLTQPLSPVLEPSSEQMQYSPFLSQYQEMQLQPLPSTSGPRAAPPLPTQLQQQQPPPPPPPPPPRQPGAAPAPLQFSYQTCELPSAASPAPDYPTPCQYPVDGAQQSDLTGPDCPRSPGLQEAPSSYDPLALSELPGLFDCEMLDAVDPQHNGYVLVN
Sequence of CDK19/cyclin C (Q9BWU1 whole entry): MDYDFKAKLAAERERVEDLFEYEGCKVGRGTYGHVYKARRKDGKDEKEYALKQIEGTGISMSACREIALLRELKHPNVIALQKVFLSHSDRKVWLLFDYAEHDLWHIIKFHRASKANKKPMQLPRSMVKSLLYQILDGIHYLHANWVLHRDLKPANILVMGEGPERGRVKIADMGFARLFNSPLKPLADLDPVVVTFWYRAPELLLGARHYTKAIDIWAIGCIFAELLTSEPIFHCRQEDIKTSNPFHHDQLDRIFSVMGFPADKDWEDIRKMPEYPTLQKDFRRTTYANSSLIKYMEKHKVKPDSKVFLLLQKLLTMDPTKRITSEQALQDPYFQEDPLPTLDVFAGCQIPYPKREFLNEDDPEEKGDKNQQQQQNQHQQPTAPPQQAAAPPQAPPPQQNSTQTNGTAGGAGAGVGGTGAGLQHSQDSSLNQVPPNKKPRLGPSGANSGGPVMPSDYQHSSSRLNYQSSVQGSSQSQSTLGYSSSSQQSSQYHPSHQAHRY
Sequence of CDK19/cyclin C (P24863 whole entry partner): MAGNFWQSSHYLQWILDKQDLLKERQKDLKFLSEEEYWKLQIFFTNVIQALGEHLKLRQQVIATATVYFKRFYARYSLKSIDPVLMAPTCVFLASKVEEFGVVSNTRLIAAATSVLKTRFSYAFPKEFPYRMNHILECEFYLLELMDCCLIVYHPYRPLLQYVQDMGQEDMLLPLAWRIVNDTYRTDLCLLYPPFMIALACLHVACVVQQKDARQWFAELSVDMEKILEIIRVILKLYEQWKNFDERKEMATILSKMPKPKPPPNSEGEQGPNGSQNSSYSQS
Sequence of PLK1 (P53350 whole entry): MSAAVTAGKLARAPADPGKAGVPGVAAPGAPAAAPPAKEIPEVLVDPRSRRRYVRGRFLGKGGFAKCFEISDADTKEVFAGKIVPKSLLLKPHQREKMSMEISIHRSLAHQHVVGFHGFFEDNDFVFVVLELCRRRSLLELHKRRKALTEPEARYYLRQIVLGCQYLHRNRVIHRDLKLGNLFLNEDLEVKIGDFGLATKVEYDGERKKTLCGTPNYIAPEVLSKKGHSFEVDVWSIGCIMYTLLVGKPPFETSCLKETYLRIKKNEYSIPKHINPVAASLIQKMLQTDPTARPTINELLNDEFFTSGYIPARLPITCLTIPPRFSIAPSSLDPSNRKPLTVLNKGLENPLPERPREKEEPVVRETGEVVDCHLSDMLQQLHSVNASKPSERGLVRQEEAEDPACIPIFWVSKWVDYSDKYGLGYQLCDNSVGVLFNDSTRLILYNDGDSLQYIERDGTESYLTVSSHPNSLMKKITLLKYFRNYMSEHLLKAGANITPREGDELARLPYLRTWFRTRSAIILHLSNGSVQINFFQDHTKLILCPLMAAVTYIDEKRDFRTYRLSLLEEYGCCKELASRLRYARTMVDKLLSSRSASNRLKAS
Sequence of PLK2 (Q9NYY3 whole entry): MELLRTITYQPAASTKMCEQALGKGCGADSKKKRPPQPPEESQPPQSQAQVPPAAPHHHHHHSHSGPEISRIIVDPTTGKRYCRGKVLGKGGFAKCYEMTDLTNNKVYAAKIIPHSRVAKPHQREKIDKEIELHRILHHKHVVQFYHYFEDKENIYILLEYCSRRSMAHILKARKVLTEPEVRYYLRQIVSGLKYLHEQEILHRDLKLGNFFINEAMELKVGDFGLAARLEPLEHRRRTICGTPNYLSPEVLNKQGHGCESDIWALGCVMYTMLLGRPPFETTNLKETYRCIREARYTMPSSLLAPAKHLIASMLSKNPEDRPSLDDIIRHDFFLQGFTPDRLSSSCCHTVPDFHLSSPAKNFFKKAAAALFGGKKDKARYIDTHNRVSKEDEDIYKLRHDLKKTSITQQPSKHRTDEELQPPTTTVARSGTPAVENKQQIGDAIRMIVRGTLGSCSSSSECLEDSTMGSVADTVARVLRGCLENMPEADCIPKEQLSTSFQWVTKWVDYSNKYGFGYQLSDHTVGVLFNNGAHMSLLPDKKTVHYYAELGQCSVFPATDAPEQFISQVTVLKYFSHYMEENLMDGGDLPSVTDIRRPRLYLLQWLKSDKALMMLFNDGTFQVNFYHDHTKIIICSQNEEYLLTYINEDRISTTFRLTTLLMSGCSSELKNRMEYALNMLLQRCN
Sequence of KSR1 (Q8IVT5 whole entry): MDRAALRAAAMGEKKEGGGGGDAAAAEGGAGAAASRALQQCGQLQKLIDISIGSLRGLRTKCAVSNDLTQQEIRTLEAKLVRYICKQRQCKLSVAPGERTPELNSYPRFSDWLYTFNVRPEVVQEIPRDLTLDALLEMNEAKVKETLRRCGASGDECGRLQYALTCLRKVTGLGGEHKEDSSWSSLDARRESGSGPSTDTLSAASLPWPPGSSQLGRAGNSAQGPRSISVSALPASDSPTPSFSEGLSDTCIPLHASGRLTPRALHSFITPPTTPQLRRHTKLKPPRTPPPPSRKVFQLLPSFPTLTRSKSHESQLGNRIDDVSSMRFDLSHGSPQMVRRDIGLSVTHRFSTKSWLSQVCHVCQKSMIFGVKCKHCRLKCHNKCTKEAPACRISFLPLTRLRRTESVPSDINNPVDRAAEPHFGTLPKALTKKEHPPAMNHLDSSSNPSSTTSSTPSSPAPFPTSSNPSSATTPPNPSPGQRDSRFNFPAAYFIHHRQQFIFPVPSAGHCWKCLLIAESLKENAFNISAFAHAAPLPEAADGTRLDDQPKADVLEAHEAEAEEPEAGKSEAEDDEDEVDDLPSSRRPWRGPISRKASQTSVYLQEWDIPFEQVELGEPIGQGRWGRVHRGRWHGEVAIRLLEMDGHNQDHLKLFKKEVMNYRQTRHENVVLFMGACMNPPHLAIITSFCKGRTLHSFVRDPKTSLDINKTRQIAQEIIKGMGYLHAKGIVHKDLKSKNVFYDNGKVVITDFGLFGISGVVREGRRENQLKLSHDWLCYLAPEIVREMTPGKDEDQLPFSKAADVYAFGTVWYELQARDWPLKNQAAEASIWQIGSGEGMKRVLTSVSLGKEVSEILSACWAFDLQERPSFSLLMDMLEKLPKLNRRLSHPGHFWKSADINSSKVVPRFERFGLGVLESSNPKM
Sequence of GSK3a (P49840 whole entry): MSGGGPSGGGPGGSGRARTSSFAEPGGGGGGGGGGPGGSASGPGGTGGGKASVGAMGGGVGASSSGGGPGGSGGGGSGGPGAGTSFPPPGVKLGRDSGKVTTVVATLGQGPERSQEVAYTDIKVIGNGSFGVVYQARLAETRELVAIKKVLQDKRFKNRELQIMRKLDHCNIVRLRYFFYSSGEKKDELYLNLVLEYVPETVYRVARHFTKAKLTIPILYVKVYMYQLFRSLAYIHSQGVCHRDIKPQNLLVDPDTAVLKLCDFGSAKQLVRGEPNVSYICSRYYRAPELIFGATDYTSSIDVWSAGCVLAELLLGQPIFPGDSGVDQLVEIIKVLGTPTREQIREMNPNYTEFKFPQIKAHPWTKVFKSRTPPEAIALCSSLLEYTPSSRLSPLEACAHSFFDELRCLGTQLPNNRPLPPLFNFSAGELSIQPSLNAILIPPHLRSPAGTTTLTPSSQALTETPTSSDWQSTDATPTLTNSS

**Q.** With `COc1cc(N2CCN(C)CC2)c(C)cc1Nc1ncc(Br)c(Nc2cccnc2N(C)C)n1` [TP-5801] as the molecule, how does the remaining activity at 0.3 µM (GRK1; [1]) read?
**A.** 118%

**Q.** And the remaining activity at 0.3 µM (GRK1; [2])?
**A.** 109%

**Q.** And the remaining activity at 0.3 µM (FYN; [1])?
**A.** 108%

**Q.** And the remaining activity at 0.3 µM (FYN; [2])?
**A.** 105%

**Q.** What about the remaining activity at 0.3 µM (PKA; [1]) of the same molecule?
**A.** 110%

**Q.** What about the remaining activity at 0.3 µM (PKA; [2]) of the same molecule?
**A.** 108%

**Q.** What about the remaining activity at 0.3 µM (ABL2/ARG; [1]) of the same molecule?
**A.** 93.2%

**Q.** What about the remaining activity at 0.3 µM (ABL2/ARG; [2]) of the same molecule?
**A.** 91.6%

**Q.** What about the remaining activity at 0.3 µM (CDK16/cyclin Y (PCTAIRE); [1]) of the same molecule?
**A.** 99.8%

**Q.** What about the remaining activity at 0.3 µM (CDK16/cyclin Y (PCTAIRE); [2]) of the same molecule?
**A.** 97.2%

**Q.** And the remaining activity at 0.3 µM (RSK2; [1])?
**A.** 90.5%

**Q.** What about the remaining activity at 0.3 µM (RSK2; [2]) of the same molecule?
**A.** 84.9%

**Q.** And the remaining activity at 0.3 µM (GSK3a; [1])?
**A.** 97.1%

**Q.** And the remaining activity at 0.3 µM (GSK3a; [2])?
**A.** 95.8%

**Q.** What about the remaining activity at 0.3 µM (KSR1; [1]) of the same molecule?
**A.** 99.2%

**Q.** And the remaining activity at 0.3 µM (KSR1; [2])?
**A.** 97.6%

**Q.** And the remaining activity at 0.3 µM (IRAK1; [1])?
**A.** 87.2%

**Q.** What about the remaining activity at 0.3 µM (IRAK1; [2]) of the same molecule?
**A.** 83.4%

**Q.** What about the remaining activity at 0.3 µM (SIK2; [1]) of the same molecule?
**A.** 79.4%

**Q.** And the remaining activity at 0.3 µM (SIK2; [2])?
**A.** 78.3%

**Q.** What about the remaining activity at 0.3 µM (CDK19/cyclin C; [1]) of the same molecule?
**A.** 54.8%

**Q.** And the remaining activity at 0.3 µM (CDK19/cyclin C; [2])?
**A.** 54.1%

**Q.** And the remaining activity at 0.3 µM (PLK2; [1])?
**A.** 84%

**Q.** And the remaining activity at 0.3 µM (PLK2; [2])?
**A.** 83.9%

**Q.** And the remaining activity at 0.3 µM (CAMKK2; [1])?
**A.** 31.9%

**Q.** And the remaining activity at 0.3 µM (CAMKK2; [2])?
**A.** 30.2%

**Q.** And the remaining activity at 0.3 µM (VRK2; [1])?
**A.** 96%

**Q.** And the remaining activity at 0.3 µM (VRK2; [2])?
**A.** 93.9%

**Q.** What about the remaining activity at 0.3 µM (DYRK1/DYRK1A; [1]) of the same molecule?
**A.** 86.5%

**Q.** And the remaining activity at 0.3 µM (DYRK1/DYRK1A; [2])?
**A.** 85.9%

**Q.** What about the remaining activity at 0.3 µM (ROCK1; [1]) of the same molecule?
**A.** 99.8%

**Q.** And the remaining activity at 0.3 µM (ROCK1; [2])?
**A.** 96.7%

**Q.** And the remaining activity at 0.3 µM (RSK1; [1])?
**A.** 76.2%

**Q.** What about the remaining activity at 0.3 µM (RSK1; [2]) of the same molecule?
**A.** 74.2%

**Q.** And the remaining activity at 0.3 µM (PLK1; [1])?
**A.** 88.7%

**Q.** And the remaining activity at 0.3 µM (PLK1; [2])?
**A.** 87.8%

**Q.** What about the remaining activity at 0.3 µM (CDC7/DBF4; [1]) of the same molecule?
**A.** 124%

**Q.** And the remaining activity at 0.3 µM (CDC7/DBF4; [2])?
**A.** 123%

**Q.** What about the remaining activity at 0.3 µM (ROCK2) of the same molecule?
**A.** 103%
